Test results reported in patent publication US12656355B2, “Two phase indicator displacement assay” (The Florida State University Research Foundation, Inc., priority 2022, dated 2026).
One block for each compound: values may come before it.

Tests used:
Type in all cases: physicochemical
[1] = Partitioning indicator displacement assay (PIDA), CTAB/octanol drops with blue 1 dye indicator
Text: The organic drops with fully dissolved indicator were exposed to an aqueous phase containing the target analyte. Over time the target analyte displaced the indicator and partitioned into the organic phase. In this experiment, the sensor had various concentrations of CTAB dissolved into the organic phase and used the maximum saturation ratio of blue dye to CTAB (Mechanism paper) to saturate each organic phase solution with the indicator, blue FCF dye. The displacement of blue dye from the organic phase was measured by monitoring optical transmittance using a color camera.
Five concentrations (60 mM, 30 mM, 15 mM, 7.5 mM, and 3.75 mM) of CTAB in octanol were placed in a tube along with 50 μM of blue dye dissolved in D.I. water, set on a shaker and allowed to equilibrate. An array was made with a sample of each concentration with the blue dye; with 11 drops (replicates) of each concentration and viewed using a DinoLite microscope. Four-hundred μM of aqueous red dye was flowed into the array and a picture was taken before addition of red dye and then every 5 seconds over a 15 minute period. […] Images were analyzed in imageJ, using […] within each replicate and 25 points for background analysis. The replicates were then separated by channel as gray values of the micrographs, and data normalized into absorbance values by subtracting the original dye free data from each replicate. The replicates were averaged per concentration and the data was transferred into percent transmittance using the formula […].
The organic solute cetyltrimethylammonium bromide (CTAB) was purchased from Sigma-Aldrich (St. Louis, USA). Erioglaucine disodium salt (Blue 1) was purchased from Sigma-Aldrich (St. Louis, MO, USA). 10 mL of 6 mM, 3 mM, 1.5 mM, 0.75 mM, and 0.375 mM blue 1 dye dissolved in deionized water and added to separate tubes containing 2 mL of different concentrations of CTAB in octanol (60 mM, 30 mM, 15 mM, 7.5 mM, and 3.75 mM), set on a shaker and allowed to equilibrate. After equilibrating for one week, the organic layer of each CTAB concentration containing the blue 1 dye was used to make the microarray.
50 nL octanol drops containing CTAB and blue 1 dye were placed onto microscope slides manufactured by Azer Scientific (Unifrost) using 0.1-10 μL disposable sterile pipet tips (VWR). A barrier of 0.3 mm PDMS was used as a spacer between the slide and cover slip (25 mm×25 mm) manufactured by VWR. Approximately 135 μL of analyte solution was added to the flow cell and moved quickly through the flow cell.
Samples were imaged with a digital microscope (Dino-Lite Pro2 AD-413T or Dino-Lite Edge AM4115ZT) at 100 Å˜ magnification. For imaging PIDA assays, a portable backlight stage (Dino-Lite MSBL-ZW1R) was used as a white light source and positioned under the bottom of the slide to illuminate the sample. Images for measurement of the transmittance were captured in brightfield mode. The time dependent partitioning was recorded at one frame per 20 second intervals.
Images were analyzed in imageJ, using 10 points within each replicate and 25 points for background analysis. The replicates were then separated into different RGB channels as gray values of the micrographs. The data was then normalized into transmittance values by subtracting the original dye free data from each replicate. The data was then converted into absorbance using the formula […]. Using the absorbance data, and the measured initial blue dye concentrations, the data was converted to blue dye concentration and then the replicates were averaged per concentration and the standard deviation was calculated. Graphs showing the separate channels of the micrographs, with the red color (b) or blue color (e) that was viewable with the DinoLite, and how they differed with concentration (B and E). The graphs are made from each of the 5 concentrations with their associated normalized absorbance values. […]

[2] = Surfactant mediated selective dye partitioning octanol/water in tubes (non-equilibrated); details: mixture of red and blue dye in water, 4-48 hours
Method: Herein, detecting selective partitioning into droplets in a microfluidic device was scaled up to millimeter volumes in tubes, as shown in FIGS. 15A-15B and FIGS. 16A-16B. The selective partitioning behavior of the two dyes between the octanol and water phases was studied in test tubes (FIGS. 15A-15B), and dye concentrations quantified optically. First, solutions of CTAB in octanol and both dyes in water were prepared separately. Then both the aqueous and organic solutions were combined into one tube. After some time, one or both dyes partitioned into the organic phase. […] Due to the larger scale of the experiment, it took between 4-48 hours to observe the selectivity, as compared to 1-10 minutes in the microfluidic setup. (Bell, 2020.) A question about the mechanism of this surfactant mediated molecular recognition was then whether one dye is thermodynamically favored to partition into the octanol in the presence of CTAB or whether it is kinetically driven. […]
(§1) Erioglaucine disodium salt (Blue 1) was purchased from Sigma-Aldrich (St. Louis, MO, USA). […] The dye concentrations are chosen such that once this criterion is met, there will be enough dye left in the aqueous phase to be detected by a spectrophotometer so that the aqueous phase solution will have concentrations of 1700 uM, 850 uM, 425 uM, 213 uM, 106 uM for both red 40 dye and blue 1 dye.

[3] = Equilibrium dye partitioning octanol/water with CTAB (tubes, absorbance of aqueous phase); details: for stoichiometric ratio, CTAB molecules needed to extract each dye molecule: calculated from dye left in the water after extraction, where not all dye was extracted
Text: To examine the dye partitioning at equilibrium, the two-phase system at various CTAB concentrations, samples were left on a shaker for one week followed by centrifugation and optical characterization of the aqueous phase by absorbance spectroscopy (FIGS. 16A-16B). Tubes containing only the red dye and only blue dye were included in the experiment as well as tubes with the dye mixture. […] CTAB has a net charge of +1 whereas both dye molecules have a net charge of −2. Thus, two positively charged CTAB can effectively balance the negative charge of the dye molecules resulting in a zero net charge for a complex of two CTAB and one dye molecule.
In order to further study the equilibrium state at high CTAB concentrations, the setup was used to allow for observation of the equilibrated state at high CTAB concentrations with excess dye in the water. Using the previously calculated dye ratios needed for maximum saturation in the organic phase, the dye concentrations were chosen so that it would be impossible for both red and blue dye to fully partition into the organic phase. Tubes with a range of concentration from 3.75 mM to 60 mM CTAB dissolved in octanol and deionized water with blue and red dye concentrations ranging from 106 μM to 1700 μM. By observing which dye is left in the aqueous phase after equilibrium is reached, it can be determined which dye is more thermodynamically favorable in the organic phase at equilibrium. If the mechanism for the blue dye selectivity at high CTAB concentrations is thermodynamic in nature and depends on the formation of micelles in the organic phase, then at high CTAB concentrations the dye remaining in the aqueous phase should be the red dye and at low CTAB concentrations, the dye remaining in the aqueous phase should be the blue dye. However, if the mechanism is kinetic and relies on the formation of an aggregation phase at the interface of the two phases, then at all concentrations of CTAB the dye remaining in the aqueous phase should be the blue dye. […] From this it was concluded that the red dye is thermodynamically favored to partition into the CTAB containing organic phase.
as §1, with “USA). Allura red AC (Red 40) was obtained from TCI (Tokyo, Japan).” for “USA).”, “dye. […]” for “dye.”
The blue 1 dye and red 40 dye used wavelengths of 629 nm and 501 nm respectively for absorbance measurements. […]

[4] = Cross-polarized microscopy of CTAB containing octanol droplets exposed to aqueous dye; details: for anisotropic phase (birefringent ring) formation, single-dye system: 400 uM red dye only or 50 uM blue dye only, CTAB drops 7.5-60 mM, ring at 30 mM CTAB or higher; for birefringent phase formation under crossed polarizers: CTAB containing droplet arrays exposed to dye (FIGS. 6A-6B)
Method: Also, it can be observed that there is formation of an anisotropic phase in the 30 mM CTAB drops in the red and blue dye and the red dye only systems before the red dye fully partitions into the organic phase of the drop around 5 minutes. After 5 minutes, as the red dye continues to partition into the organic phase, this anisotropic phase seems to disappear. This can be observed by observing the absence of the anisotropic phase at 10 minutes and all later times for the 30 mM CTAB drops in the red and blue dye and the red dye only systems. […] This pattern of anisotropic phase formation before the red dye partitions supports the kinetic barrier mechanism which depends on the formation of some anisotropic phase on the interface of the drops with high CTAB concentration that hinders the red dye from partitioning in and allows the blue dye to partition in at a faster rate resulting in the observed high CTAB concentration blue dye selectivity and the low CTAB concentration red dye selectivity in the Bell, 2020 study.
Erioglaucine disodium salt (Blue 1) was purchased from Sigma-Aldrich (St. Louis, MO, USA). Allura red AC (Red 40) was obtained from TCI (Tokyo, Japan). For the birefringent ring experiments shown in FIG. 3, 400 uM red 40 dye and 50 uM blue 1 dye were dissolved in D.I. water. For the equilibrium tube experiment, dye concentrations were chosen based on the assumption that one dye molecule can be sequestered for every two CTAB molecules. The dye concentrations are chosen such that once this criterion is met, there will be enough dye left in the aqueous phase to be detected by a spectrophotometer so that the aqueous phase solution will have concentrations of 1700 uM, 850 uM, 425 uM, 213 uM, 106 uM for both red 40 dye and blue 1 dye.
The different lipid solutions were microarrayed using 0.1-10 μL disposable sterile pipet tips (VWR) directly onto the substrate. Drops were 0.1 uL in volume and only had contact with the bottom glass slide. After tapping the microarray onto the substrate, 0.3 mm thick PDMS was used as a spacer between the substrate and the cover. The two spacers will be fixed 1.8 cm apart onto the substrate. The coverslip will be placed carefully onto two spacers. Microscope slides manufactured by Azer Scientific (Unifrost) will be used as substrates. Microscope cover glasses (25 mm Å˜25 mm) manufactured by VWR will be used as slipcovers. Approximately 130 μL of aqueous solution was added to the right side of the flow cell and moved quickly through the flow cell. Prior to experiments, test samples will be incubated in 1 mL of deionized water to test for stability.
The blue 1 dye and red 40 dye used wavelengths of 629 nm and 501 nm respectively for absorbance measurements. Microarray samples requiring 30 min or less were imaged with a digital microscope (Dino-Lite Pro2 AD-413T or Dino-Lite Edge AM4115ZT) at 100 Å˜ magnification. For imaging lipid microarrays, a portable backlight stage (Dino-Lite MSBL-ZW1R) was used as a white light source and positioned under the bottom of the slide to illuminate the sample.

[5] = 3.75 mM CTAB drops, blue 1 dye indicator, red 40 dye analyte, from TRF fitting

SMILES: [Cl-].[Na+] [sodium chloride]
- blue dye indicator displaced ([1]; 50 mM analyte, after 10 minutes, 7.5 mM CTAB containing octanol drops (FIG. 7B)): ~48.3%

- stoichiometric ratio, CTAB molecules needed to extract each dye molecule [3]: approximately 2
- anisotropic phase (birefringent ring) formation, single-dye system ([4]; disodium salt): no anisotropic phase formation
- anisotropic phase (birefringent ring) formation, single-dye system ([4]; listed as Blue Dye, disodium salt): doesn't cause a ring
SMILES: CCN(Cc1cccc(S(=O)(=O)[O-])c1)c1ccc(C(=C2C=CC(=[N+](CC)Cc3cccc(S(=O)(=O)[O-])c3)C=C2)c2ccccc2S(=O)(=O)[O-])cc1.[Na+].[Na+] [blue dye, Erioglaucine disodium salt]
- selective partitioning into the octanol phase ([2]; high CTAB concentrations (30 mM and 60 mM) in octanol): selectively partitioned into the octanol phase

- birefringent phase formation under crossed polarizers [4]: not
SMILES: O=S(=O)([O-])c1ccc(N=Nc2c(O)ccc3cc(S(=O)(=O)[O-])ccc23)cc1.[Na+].[Na+] [Sunset Yellow FCF]

- stoichiometric ratio, CTAB molecules needed to extract each dye molecule [3]: approximately 2
- partitioning at equilibrium ([3]; low CTAB concentration (<15 mM), shaker one week): partitioned into the octanol phase
- anisotropic phase (birefringent ring) formation, single-dye system [4]: formation of an anisotropic structure
- anisotropic phase (birefringent ring) formation, single-dye system ([4]; listed as Allura Red Dye): causes a ring
- birefringent phase formation under crossed polarizers [4]: birefringent phase forming
SMILES: COc1cc(S(=O)(=O)[O-])c(C)cc1N=Nc1c(O)ccc2cc(S(=O)(=O)[O-])ccc12.[Na+].[Na+] [red dye, Allura red AC]
- selective partitioning into the octanol phase ([2]; CTAB 0.5 mM and 1 mM in octanol): selectively partitioned into the octanol phase
- partitioning at equilibrium with excess dye in the water ([3]; 3.75 mM to 60 mM CTAB in octanol, blue and red dye 106 μM to 1700 μM, all concentrations tested): preferentially partition into the organic phase

SMILES: CCCCCCCCCCCCCCCC[N+](C)(C)C.[Br-] [CTAB, cetyltrimethylammonium bromide]
- delay in onset time of displacement [1, 5]: no delay in onset time
- rate of displacement (decay constant) [1, 5]: 0.48 s⁻¹
- rate of displacement (decay constant) ([1]; 7.5 mM CTAB drops, blue 1 dye indicator, red 40 dye analyte, from TRF fitting): 0.42 s⁻¹
- delayed onset time of displacement ([1]; 30 mM CTAB drops, blue 1 dye indicator, red 40 dye analyte, from TRF fitting): 7.76 min
- displacement rate ([1]; 30 mM CTAB, blue 1 dye indicator, red 40 dye analyte, from TRF fitting): 0.07 s⁻¹
